Data taken from patent US20250176550A1, “HERBICIDE COMPOSITION OF URACIL COMPOUND CONTAINING CARBOXYLATE FRAGMENT AND THE USE THEREOF” (Jiangsu Flag Chemical Industry Co., Ltd., priority 2022, published 2025).

Experiments:
Test in all cases: Indoor virulence and combined effect, greenhouse pot test, post-emergence stem and leaf spray, fresh weight inhibition
Type in all cases: in vivo
echinochloa crusgalli = conditions: for Fresh weight inhibition rate %, A single agent: post-emergence, 21 days after treatment; for Fresh weight suppression rate %, A single dose: Table 22
Method in brief: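 Greenhouse potted weeds sprayed post-emergence on stem and leaf at 3–4 leaf stage, with A and B alone or mixed; acetone solutions diluted in 0.1 wt% Tween-80, solvent-emulsifier water as blank.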

eleusine indica = conditions: Table 30
Method in brief: (§1)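 Weeds in greenhouse pots received a spray-tower treatment, either post-emergence at the 3–4 leaf (grasses) or 4–6 leaf (broadleaf) stage, or pre-emergence as a soil spray 24 h after sowing. Compounds were applied in acetone diluted with 0.1 wt% Tween-80 water, alone or mixed, in g/ha. Fresh weight inhibition was measured at 21 days, with synergy judged by Gowing expected efficacy (E−E0 >10%).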

digitaria sanguinalis = test system: digitaria sanguinalis
Method in brief: as §1

alopecurus japonicus = conditions: Table 7, post-emergence, 21 days after treatment
Method in brief: as §1

lolium multiflorum = test system: lolium multiflorum
Method in brief: as §1

Compound: CCOC(=O)C(C)(C)OC(=O)c1cc(-n2c(=O)cc(C(F)(F)F)n(C)c2=O)c(F)cc1Cl [Compound A-250]
- Fresh weight inhibition rate %, A single agent (echinochloa crusgalli; Table 2, 15 g a.i./ha): 26.41%
- Fresh weight inhibition rate %, A single agent (echinochloa crusgalli; Table 2, 20 g a.i./ha): 30.73%
- Fresh weight inhibition rate %, A single agent (echinochloa crusgalli; Table 3, 20 g a.i./ha): 30.73%
- Fresh weight inhibition rate %, A single agent (echinochloa crusgalli; Table 3, 25 g a.i./ha): 31.56%
- Fresh weight inhibition rate %, A single agent (echinochloa crusgalli; Table 4, 15 g a.i./ha): 26.41%
- Fresh weight inhibition rate %, A single agent (echinochloa crusgalli; Table 4, 20 g a.i./ha): 30.73%
- Fresh weight inhibition rate %, A single agent (echinochloa crusgalli; Table 4, 25 g a.i./ha): 31.56%
- Fresh weight suppression rate %, A single dose (echinochloa crusgalli; A 10 g a.i./ha): 17.77%
- Fresh weight suppression rate %, A single dose (echinochloa crusgalli; A 15 g a.i./ha): 26.41%
- Fresh weight suppression rate %, A single dose (echinochloa crusgalli; A 20 g a.i./ha): 30.73%
- Fresh weight suppression rate %, A single dose (echinochloa crusgalli; A 25 g a.i./ha): 31.56%
- Fresh weight inhibition rate %, A single agent (eleusine indica; A 10 g a.i./ha): 43.34%
- Fresh weight inhibition rate %, A single agent (eleusine indica; A 15 g a.i./ha): 55.00%
- Fresh weight inhibition rate %, A single agent (eleusine indica; A 20 g a.i./ha): 68.03%
- Fresh weight inhibition rate %, A single agent (eleusine indica; A 25 g a.i./ha): 70.36%
- Fresh weight inhibition rate %, A single agent (eleusine indica; A 30 g a.i./ha): 75.35%
- Fresh weight inhibition rate %, A single agent (digitaria sanguinalis; Table 29, A 15 g a.i./ha): 54.46%
- Fresh weight inhibition rate %, A single agent (digitaria sanguinalis; Table 29, A 20 g a.i./ha): 61.09%
- Fresh weight inhibition rate %, A single agent (digitaria sanguinalis; Table 29, A 25 g a.i./ha): 65.86%
- Fresh weight inhibition rate %, A single agent (digitaria sanguinalis; Table 29, A 30 g a.i./ha): 71.11%
- Fresh weight inhibition rate %, A single agent (digitaria sanguinalis; Table 31, A 15 g a.i./ha): 54.46%
- Fresh weight inhibition rate %, A single agent (digitaria sanguinalis; Table 31, A 20 g a.i./ha): 61.09%
- Fresh weight inhibition rate %, A single agent (digitaria sanguinalis; Table 31, A 25 g a.i./ha): 65.86%
- Fresh weight inhibition rate %, A single agent (alopecurus japonicus; 15 g a.i./ha): 39%
- Fresh weight inhibition rate %, A single agent (alopecurus japonicus; 20 g a.i./ha): 49.17%
- Fresh weight inhibition rate %, A single agent (alopecurus japonicus; 25 g a.i./ha): 55.39%
- Fresh weight inhibition rate %, A single agent (lolium multiflorum; Table 34, A 15 g a.i./ha): 55.00%
- Fresh weight inhibition rate %, A single agent (lolium multiflorum; Table 34, A 20 g a.i./ha): 68.03%
- Fresh weight inhibition rate %, A single agent (lolium multiflorum; Table 34, A 25 g a.i./ha): 70.36%
- Fresh weight inhibition rate %, A single agent (lolium multiflorum; Table 34, A 30 g a.i./ha): 75.35%
- Fresh weight inhibition rate %, A single agent (lolium multiflorum; Table 38, A 10 g a.i./ha): 43.34%
- Fresh weight inhibition rate %, A single agent (lolium multiflorum; Table 38, A 15 g a.i./ha): 55.00%
- Fresh weight inhibition rate %, A single agent (lolium multiflorum; Table 38, A 20 g a.i./ha): 68.03%
